Measurements reported in ChEMBL document CHEMBL3046897, “Synthesis of 3-{4-[4-dimethylamino-6-(4-methyl-2-oxo-2H-chromen-7-yloxy)-[1,3,5]triazin-2-ylamino]-phenyl}-2-phenyl-5-(4-pyridin-2-yl-piperazin-1-ylmethyl)-thiazolidin-4-one and their biological evaluation” (2012).
In brackets after ≈: the same amount, converted by molar mass.

Legend:
Format in all cases: functional
Shigella flexneri [1] = assay: Antibacterial activity against Shigella flexneri after 24 hr by agar streak dilution method
Proteus vulgaris [2] = assay: Antibacterial activity against Proteus vulgaris after 24 hr by agar streak dilution method
Salmonella typhi [3] = assay: Antibacterial activity against Salmonella enterica subsp. enterica serovar Typhi after 24 hr by agar streak dilution method
Klebsiella pneumoniae [4] = assay: Antibacterial activity against Klebsiella pneumoniae after 24 hr by agar streak dilution method
Candida albicans [5] = assay: Antifungal activity against Candida albicans at 100 ug/disk after 48 hr by paper disk diffusion method; settings: read-out: IZ
Aspergillus clavatus [6] = assay: Antifungal activity against Aspergillus clavatus at 100 ug/disc after 48 hr by paper disk diffusion method; settings: read-out: IZ
Aspergillus fumigatus [7] = assay: Antifungal activity against Aspergillus fumigatus at 100 ug/disc after 48 hr by paper disk diffusion method; settings: read-out: IZ
Aspergillus niger [8] = assay: Antifungal activity against Aspergillus niger at 100 ug/disk after 48 hr by paper disk diffusion method; settings: read-out: IZ
Candida albicans [9] = assay: Antifungal activity against Candida albicans after 48 hr by agar streak dilution method
Aspergillus clavatus [10] = assay: Antifungal activity against Aspergillus clavatus after 48 hr by agar streak dilution method
Aspergillus niger [11] = assay: Antifungal activity against Aspergillus niger after 48 hr by agar streak dilution method
Pseudomonas aeruginosa [12] = assay: Antibacterial activity against Pseudomonas aeruginosa after 24 hr by agar streak dilution method
Escherichia coli [13] = assay: Antibacterial activity against Escherichia coli after 24 hr by agar streak dilution method
Shigella flexneri [14] = assay: Antibacterial activity against Shigella flexneri at 100 ug/disc after 24 hr by paper disk diffusion method; settings: read-out: IZ
Proteus vulgaris [15] = assay: Antibacterial activity against Proteus vulgaris at 100 ug/disk after 24 hr by paper disk diffusion method; settings: read-out: IZ
Salmonella typhi [16] = assay: Antibacterial activity against Salmonella enterica subsp. enterica serovar Typhi at 100 ug/disk after 24 hr by paper disk diffusion method; settings: read-out: IZ
Klebsiella pneumoniae [17] = assay: Antibacterial activity against Klebsiella pneumoniae at 100 ug/disk after 24 hr by paper disk diffusion method; settings: read-out: IZ
Pseudomonas aeruginosa [18] = assay: Antibacterial activity against Pseudomonas aeruginosa at 100 ug/disk after 24 hr by paper disk diffusion method; settings: read-out: IZ
Escherichia coli [19] = assay: Antibacterial activity against Escherichia coli at 100 ug/disk after 24 hr by paper disk diffusion method; settings: read-out: IZ
Bacillus subtilis [20] = assay: Antibacterial activity against Bacillus subtilis after 24 hr by agar streak dilution method
Staphylococcus aureus [21] = assay: Antibacterial activity against Staphylococcus aureus after 24 hr by agar streak dilution method
Bacillus subtilis [22] = assay: Antibacterial activity against Bacillus subtilis at 100 ug/disk after 24 hr by paper disk diffusion method; settings: read-out: IZ
Staphylococcus aureus [23] = assay: Antibacterial activity against Staphylococcus aureus at 100 ug/disc after 24 hr by paper disk diffusion method; settings: read-out: IZ
Aspergillus fumigatus [24] = assay: Antifungal activity against Aspergillus fumigatus after 48 hr by agar streak dilution method

SMILES | MIC (Shigella flexneri [1]) | MIC (Proteus vulgaris [2]) | MIC (Salmonella typhi [3]) | MIC (Klebsiella pneumoniae [4]) | zone of inhibition at 100 µg/disc (Candida albicans [5]) | zone of inhibition at 100 µg/disc (Aspergillus clavatus [6]) | zone of inhibition at 100 µg/disc (Aspergillus fumigatus [7]) | zone of inhibition at 100 µg/disc (Aspergillus niger [8]) | MIC (Candida albicans [9]) | MIC (Aspergillus clavatus [10]) | MIC (Aspergillus niger [11]) | MIC (Pseudomonas aeruginosa [12]) | MIC (Escherichia coli [13]) | zone of inhibition at 100 µg/disc (Shigella flexneri [14]) | zone of inhibition at 100 µg/disc (Proteus vulgaris [15]) | zone of inhibition at 100 µg/disc (Salmonella typhi [16]) | zone of inhibition at 100 µg/disc (Klebsiella pneumoniae [17]) | zone of inhibition at 100 µg/disc (Pseudomonas aeruginosa [18]) | zone of inhibition at 100 µg/disc (Escherichia coli [19]) | MIC (Bacillus subtilis [20]) | further results
COc1ccc(C2SCC(=O)N2c2ccc(Nc3nc(Oc4ccc5c(C)cc(=O)oc5c4)nc(N(C)C)n3)cc2)cc1 (stereo not given) | 100 µg/mL (≈ 168 µM) | 50 µg/mL (≈ 83.8 µM) | 50 µg/mL (≈ 83.8 µM) | 50 µg/mL (≈ 83.8 µM) | 20 mm | 16 mm | 17 mm | 19 mm | 50 µg/mL (≈ 83.8 µM) | 100 µg/mL (≈ 168 µM) | 50 µg/mL (≈ 83.8 µM) | 100 µg/mL (≈ 168 µM) | 100 µg/mL (≈ 168 µM) | 13 mm | 18 mm | 19 mm | 17 mm | 15 mm | 12 mm | 100 µg/mL (≈ 168 µM) | MIC (Staphylococcus aureus [21]): 50 µg/mL (≈ 83.8 µM); zone of inhibition at 100 µg/disc (Bacillus subtilis [22]): 16 mm; zone of inhibition at 100 µg/disc (Staphylococcus aureus [23]): 18 mm; MIC (Aspergillus fumigatus [24]): 50 µg/mL (≈ 83.8 µM)
Cc1cc(=O)oc2cc(Oc3nc(Nc4ccc(N5C(=O)C(CN6CCN(c7ccccn7)CC6)SC5c5ccc(O)cc5)cc4)nc(N(C)C)n3)ccc12 (stereo not given) | 25 µg/mL (≈ 33 µM) | 12.5 µg/mL (≈ 16.5 µM) | 6.25 µg/mL (≈ 8.25 µM) | 25 µg/mL (≈ 33 µM) | 23 mm | 21 mm | 25 mm | 27 mm | 12.5 µg/mL (≈ 16.5 µM) | 25 µg/mL (≈ 33 µM) | 6.25 µg/mL (≈ 8.25 µM) | 12.5 µg/mL (≈ 16.5 µM) | 6.25 µg/mL (≈ 8.25 µM) | 22 mm | 25 mm | 27 mm | 19 mm | 23 mm | 30 mm | 6.25 µg/mL (≈ 8.25 µM) | MIC (Staphylococcus aureus [21]): 6.25 µg/mL (≈ 8.25 µM); zone of inhibition at 100 µg/disc (Bacillus subtilis [22]): 25 mm; zone of inhibition at 100 µg/disc (Staphylococcus aureus [23]): 27 mm; MIC (Aspergillus fumigatus [24]): 6.25 µg/mL (≈ 8.25 µM)
COc1ccc(/C=N/c2ccc(Nc3nc(Oc4ccc5c(C)cc(=O)oc5c4)nc(N(C)C)n3)cc2)cc1 | 100 µg/mL (≈ 191 µM) | 50 µg/mL (≈ 95.7 µM) | 50 µg/mL (≈ 95.7 µM) | 100 µg/mL (≈ 191 µM) | 17 mm | 11 mm | 13 mm | 16 mm | 50 µg/mL (≈ 95.7 µM) | 100 µg/mL (≈ 191 µM) | 50 µg/mL (≈ 95.7 µM) | 100 µg/mL (≈ 191 µM) | 100 µg/mL (≈ 191 µM) | 10 mm | 16 mm | 18 mm | 14 mm | 12 mm | 10 mm | 100 µg/mL (≈ 191 µM) | MIC (Staphylococcus aureus [21]): 100 µg/mL (≈ 191 µM); zone of inhibition at 100 µg/disc (Bacillus subtilis [22]): 13 mm; zone of inhibition at 100 µg/disc (Staphylococcus aureus [23]): 15 mm; MIC (Aspergillus fumigatus [24]): 100 µg/mL (≈ 191 µM)
Cc1cc(=O)oc2cc(Oc3nc(Nc4ccc(N5C(=O)C(CN6CCN(c7ccccn7)CC6)SC5c5ccccc5)cc4)nc(N(C)C)n3)ccc12 (stereo not given) | 100 µg/mL (≈ 135 µM) | 100 µg/mL (≈ 135 µM) | 100 µg/mL (≈ 135 µM) | 100 µg/mL (≈ 135 µM) | 12 mm | 16 mm | < 10 mm | 14 mm | 100 µg/mL (≈ 135 µM) | 100 µg/mL (≈ 135 µM) | 100 µg/mL (≈ 135 µM) | 50 µg/mL (≈ 67.4 µM) | 100 µg/mL (≈ 135 µM) | 15 mm | 13 mm | 14 mm | 13 mm | 19 mm | 16 mm | 100 µg/mL (≈ 135 µM) | MIC (Staphylococcus aureus [21]): 100 µg/mL (≈ 135 µM); zone of inhibition at 100 µg/disc (Bacillus subtilis [22]): 16 mm; zone of inhibition at 100 µg/disc (Staphylococcus aureus [23]): 14 mm; MIC (Aspergillus fumigatus [24]): 100 µg/mL (≈ 135 µM)
Cc1cc(=O)oc2cc(Oc3nc(Nc4ccc(N5C(=O)CSC5c5ccc(Cl)cc5Cl)cc4)nc(N(C)C)n3)ccc12 (stereo not given) | 50 µg/mL (≈ 78.7 µM) | 50 µg/mL (≈ 78.7 µM) | 100 µg/mL (≈ 157 µM) | 50 µg/mL (≈ 78.7 µM) | 16 mm | 19 mm | 17 mm | 14 mm | 100 µg/mL (≈ 157 µM) | 50 µg/mL (≈ 78.7 µM) | 100 µg/mL (≈ 157 µM) | 50 µg/mL (≈ 78.7 µM) | 50 µg/mL (≈ 78.7 µM) | 17 mm | 18 mm | 16 mm | 19 mm | 16 mm | 17 mm | 50 µg/mL (≈ 78.7 µM) | MIC (Staphylococcus aureus [21]): 50 µg/mL (≈ 78.7 µM); zone of inhibition at 100 µg/disc (Bacillus subtilis [22]): 19 mm; zone of inhibition at 100 µg/disc (Staphylococcus aureus [23]): 17 mm; MIC (Aspergillus fumigatus [24]): 50 µg/mL (≈ 78.7 µM)
